Measured values as given in US10543246B2, “Composition for preventing or treating hyperlipidemia” (HAWON PHARM. CORPORATION, priority 2014, dated 2020).

How the values were obtained:
Assay type in all cases: in vivo, SD rats (Sprague-Dawley rats)
[1] = system: SD rats with a high cholesterol diet (hyperlipidemia model); assay: Lipid analysis of liver tissue in high cholesterol diet SD rats; settings: liver lipid extract, oral, Ex. compositions 1,000 mg/kg, atorvastatin 5 mg/kg
Method: (§1) 6-Week-old male SD rats (Sprague-Dawley rats, body weight 180-220 g) were purchased from BioLink (Eumseong, Republic of Korea) and acclimated for a week. They were formed into groups of five rats as described in Table 2 below, and solid feed (Rodent NIH031 Open Formula Auto, Zeigler Bros., USA) and a high cholesterol diet (D12451 with 1.25% cholesterol, Research Diets Inc., USA) were freely fed. Drinking water was freely supplied. A room temperature of 22.0+/−2.0° C., a relative humidity of 50.0+/−10.0%, an illumination time of 12 hours (08:00 to 20:00), and an illuminance of 150 to 300 lux were set.
The total lipids in the liver were homogenized and then extracted using a Folch method. The extracted lipids were dissolved in an isopropanol solution, and then with the SPECTROstar Nano (BMG Labtech, Germany), total cholesterol and triglycerides in […] were colorimetrically quantified at 500 nm and 550 nm, respectively, using an enzyme reagent kit (Asan Pharmaceutical Co., Ltd., Seoul, Republic of Korea).

[2] = system: SD rats with a high cholesterol diet (hyperlipidemia model); assay: Measurement of body weight and liver weight, visual inspection of liver tissue; settings: oral, 4 weeks, Ex. compositions 1,000 mg/kg, atorvastatin 5 mg/kg, mean of five rats
Method: as §1
The body weight before drug administration and the body weight after the end of the experiment were measured. The liver weight was measured by weighing the liver extracted after lethal bleeding on the day of autopsy, and visual inspection of liver tissue was performed.

[3] = system: SD rats with a high cholesterol diet (hyperlipidemia model); assay: Measurement of blood lipid in high cholesterol diet SD rats; settings: Ex. compositions 1000 mg/kg/day, atorvastatin 5 mg/kg/day
Method: 6-Week-old male SD rats (Sprague-Dawley rats, body weight 180-220 g) were purchased from BioLink (Eumseong, Republic of Korea) and acclimated for a week. […] Drinking water was freely supplied. A room temperature of 22.0+/−2.0° C., a relative humidity of 50.0+/−10.0%, an illumination time of 12 hours (08:00 to 20:00), and an illuminance of 150 to 300 lux were set.
At the end of the experiment, each group was sacrificed after fasting for 12 hours. Their blood was collected from the posterior vena cava and transferred to an EDTA tube to separate the plasma. In the separated plasma, total cholesterol (TC), LDL cholesterol (LDL-c), HDL cholesterol (HDL-c) and triglycerides (TG) were measured using a biochemical kit (Asan Pharmaceutical Co., Ltd., Seoul, Republic of Korea).
The atherogenic index (AI) was calculated by the following equation (1) according to a method of Haulund et al. and the cardiac risk factor (CRF) was calculated by the following equation (2). Atherogenic Index(AI)=[(TC)−(HDL-c)]/[(HDL-c)] (1) Cardiac Risk Factor(CRF)=(TC)/(HDL-c) (2)

## CC(C)c1c(C(=O)Nc2ccccc2)c(-c2ccccc2)c(-c2ccc(F)cc2)n1CC[C@@H](O)C[C@@H](O)CC(=O)O [Atorvastatin]
[1]
  Hepatic total cholesterol concentration: 146 mg/dL
  Hepatic triglyceride concentration: 197 mg/dL
[2]
  Body weight: 571.6 g
  Liver weight: 24.5 g
  Liver weight/Body weight: 4.26%
[3]; (TC)/(HDL-c)
  Cardiac Risk Factor (CRF): 2.6
[3]
  LDL/HDL: 0.9
